Assay results taken from ChEMBL document CHEMBL1201862, “PubChem BioAssay data set” (2004).
Activity calls are given as the source filed them.

How the values were obtained:
[1] = target: Potassium voltage-gated channel subfamily KQT member 2 (Rattus norvegicus, UniProt O88943, W236L); experiment: potentiation of rat KCNQ2 current – cell-based, automated electrophysiology, mechanism study for KCNQ2 potentiator project, dose response (AID 2603); format: functional
[2] = Luminescence Cell-Based Dose Retest to Confirm Inhibitors of Cancer Stem Cells. [Related pubchem assays (depositor defined):AID2717, AID2721]; format: functional; details: Homo sapiens
[3] = Intein inhibitors as potential Tuberculosis drugs, a cytotoxicity screen. [Related pubchem assays (depositor defined):AID2221, AID2223, AID434968, AID435010, AID449749, AID449750, AID489010]; format: functional
[4] = target: T1, Replicative DNA helicase DnaB (Mycobacterium tuberculosis, UniProt P9WMR3); experiment: DnaB intein splicing inhibitors, dose response, biochemical, cell-free fluorescence (AID 449749); format: functional
T1 sequence (P9WMR3 whole entry): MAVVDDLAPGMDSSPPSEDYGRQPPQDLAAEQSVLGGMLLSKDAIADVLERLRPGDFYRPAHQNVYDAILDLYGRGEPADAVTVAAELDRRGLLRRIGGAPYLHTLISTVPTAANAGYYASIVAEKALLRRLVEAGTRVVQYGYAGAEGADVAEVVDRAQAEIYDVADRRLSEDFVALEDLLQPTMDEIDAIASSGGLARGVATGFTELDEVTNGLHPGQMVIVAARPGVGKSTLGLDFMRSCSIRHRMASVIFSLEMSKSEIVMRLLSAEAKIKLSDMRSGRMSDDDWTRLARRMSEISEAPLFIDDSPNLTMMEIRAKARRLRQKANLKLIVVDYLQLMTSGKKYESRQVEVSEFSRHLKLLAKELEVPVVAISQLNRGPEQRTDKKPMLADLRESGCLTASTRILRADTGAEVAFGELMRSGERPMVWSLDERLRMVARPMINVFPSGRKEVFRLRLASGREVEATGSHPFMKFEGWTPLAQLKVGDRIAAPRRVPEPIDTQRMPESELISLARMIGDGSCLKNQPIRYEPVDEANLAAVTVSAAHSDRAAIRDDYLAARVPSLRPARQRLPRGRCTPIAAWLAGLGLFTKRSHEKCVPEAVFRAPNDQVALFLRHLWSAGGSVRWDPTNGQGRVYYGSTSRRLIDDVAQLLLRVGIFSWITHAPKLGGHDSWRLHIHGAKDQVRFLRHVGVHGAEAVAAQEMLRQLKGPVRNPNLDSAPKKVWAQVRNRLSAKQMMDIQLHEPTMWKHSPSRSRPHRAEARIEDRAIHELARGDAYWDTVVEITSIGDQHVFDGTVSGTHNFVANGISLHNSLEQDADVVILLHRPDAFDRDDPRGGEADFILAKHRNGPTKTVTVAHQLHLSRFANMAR

Vero = experiment: viability of Vero cells under compound – cytotoxicity control for flavivirus capping enzyme inhibitors (AID 588742); format: functional; details: Chlorocebus sabaeus
Protein RecA = target: T2, Protein RecA (Mycobacterium tuberculosis, UniProt P9WHJ3); experiment: Fluorescence Cell-Free Homogeneous Dose Retest to Identify Inhibitors of RecA-Intein Splicing Activity. [Related pubchem assays (depositor defined):AID2097, AID2223, AID489010, AID492950]; format: functional
T2 sequence (P9WHJ3 whole entry): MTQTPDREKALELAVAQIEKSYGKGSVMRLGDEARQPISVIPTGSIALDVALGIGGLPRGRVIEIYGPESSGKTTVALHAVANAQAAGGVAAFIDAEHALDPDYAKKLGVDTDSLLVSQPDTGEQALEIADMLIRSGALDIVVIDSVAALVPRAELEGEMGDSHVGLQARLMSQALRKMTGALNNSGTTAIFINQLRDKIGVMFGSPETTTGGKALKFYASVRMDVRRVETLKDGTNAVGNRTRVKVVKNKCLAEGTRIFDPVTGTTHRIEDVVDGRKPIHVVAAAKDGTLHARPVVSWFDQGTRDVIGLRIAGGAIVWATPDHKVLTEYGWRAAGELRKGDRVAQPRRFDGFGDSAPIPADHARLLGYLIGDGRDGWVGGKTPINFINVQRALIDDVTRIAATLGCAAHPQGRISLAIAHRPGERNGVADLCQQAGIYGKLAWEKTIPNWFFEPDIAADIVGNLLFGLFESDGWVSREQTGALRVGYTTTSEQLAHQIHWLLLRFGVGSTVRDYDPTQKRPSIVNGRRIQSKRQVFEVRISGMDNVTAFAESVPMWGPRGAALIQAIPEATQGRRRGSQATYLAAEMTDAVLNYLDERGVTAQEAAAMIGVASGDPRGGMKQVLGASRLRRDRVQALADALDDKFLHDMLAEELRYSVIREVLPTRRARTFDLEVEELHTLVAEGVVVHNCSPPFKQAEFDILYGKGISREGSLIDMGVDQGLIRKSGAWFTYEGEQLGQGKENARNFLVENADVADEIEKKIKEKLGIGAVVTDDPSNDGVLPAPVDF

Genome polyprotein = Genome polyprotein (dengue virus type 2, UniProt P29990); experiment: flavivirus cap methylation enzyme inhibition – biochemical, confirmation dose response, primary screen (AID 588689); format: functional
Chain of Genome polyprotein (P29990 2492-3391 limits assumed): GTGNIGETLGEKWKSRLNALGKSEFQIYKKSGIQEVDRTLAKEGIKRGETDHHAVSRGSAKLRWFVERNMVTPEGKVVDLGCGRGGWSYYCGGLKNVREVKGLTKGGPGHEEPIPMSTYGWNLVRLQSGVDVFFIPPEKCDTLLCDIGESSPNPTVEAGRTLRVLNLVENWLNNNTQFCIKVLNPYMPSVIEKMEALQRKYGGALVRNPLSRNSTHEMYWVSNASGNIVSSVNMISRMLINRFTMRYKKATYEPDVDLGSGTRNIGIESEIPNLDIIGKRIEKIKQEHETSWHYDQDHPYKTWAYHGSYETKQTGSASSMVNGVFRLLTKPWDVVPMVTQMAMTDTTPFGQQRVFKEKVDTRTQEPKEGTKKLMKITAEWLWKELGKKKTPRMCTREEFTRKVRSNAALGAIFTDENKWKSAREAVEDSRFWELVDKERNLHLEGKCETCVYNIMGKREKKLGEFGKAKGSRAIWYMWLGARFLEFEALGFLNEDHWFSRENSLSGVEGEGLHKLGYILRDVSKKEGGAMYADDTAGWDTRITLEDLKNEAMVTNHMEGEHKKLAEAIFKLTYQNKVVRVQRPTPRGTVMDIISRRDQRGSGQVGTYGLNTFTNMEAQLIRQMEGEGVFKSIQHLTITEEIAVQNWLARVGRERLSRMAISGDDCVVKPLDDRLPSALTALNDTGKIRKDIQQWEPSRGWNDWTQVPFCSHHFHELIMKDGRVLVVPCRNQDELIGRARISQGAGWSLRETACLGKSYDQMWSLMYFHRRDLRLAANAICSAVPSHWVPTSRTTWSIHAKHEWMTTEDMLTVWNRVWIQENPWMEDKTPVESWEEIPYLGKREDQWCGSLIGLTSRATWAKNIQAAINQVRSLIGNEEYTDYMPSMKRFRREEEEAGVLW

[5] = reduction of Shn3 3'UTR-driven luciferase in osteoblasts – cell-based, Clone20 osteoblasts, firefly luciferase, cherry-picked, dose response (AID 624132); format: functional;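 also: firefly luciferase luminescence from reporter carrying the Shn3 3'UTR in osteoblasts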
[6] = non-specific 3'UTR reporter inhibition in Clone20-Shn3RL – cell-based, Renilla luciferase, cherry-picked, counter-screen for Shn3 inhibitor project, dose response (AID 624133); format: functional
[7] = target: Hepatocyte nuclear factor 4-alpha (Homo sapiens, UniProt P41235); format: functional, cell-based;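 also: biochemical luminescence-based dose-response counterscreen measuring inhibition of HNF4 dimerization, run alongside a screen for blockers of ABHD5–perilipin-5 interaction; split luciferase complementation of HNF4 fusion proteins in cell lysate measuring dimerization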
Chain of Hepatocyte nuclear factor 4-alpha (P41235 whole entry, the tested form may be a part): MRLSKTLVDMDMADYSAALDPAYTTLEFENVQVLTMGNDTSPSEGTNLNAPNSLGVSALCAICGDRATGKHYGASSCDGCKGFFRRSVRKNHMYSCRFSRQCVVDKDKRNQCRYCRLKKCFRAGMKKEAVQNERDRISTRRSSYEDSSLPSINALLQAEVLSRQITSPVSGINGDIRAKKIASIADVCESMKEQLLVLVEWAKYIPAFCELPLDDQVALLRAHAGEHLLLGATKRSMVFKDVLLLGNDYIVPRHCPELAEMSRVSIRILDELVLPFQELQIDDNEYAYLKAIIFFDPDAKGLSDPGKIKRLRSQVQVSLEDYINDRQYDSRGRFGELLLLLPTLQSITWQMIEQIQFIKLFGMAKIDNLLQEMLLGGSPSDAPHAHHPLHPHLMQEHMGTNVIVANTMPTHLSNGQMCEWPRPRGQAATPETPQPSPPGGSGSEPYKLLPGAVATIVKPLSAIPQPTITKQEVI

Bcl-2-like protein 10 = Bcl-2-like protein 10 (Homo sapiens, UniProt Q9HD36); experiment: Concentration-response of Bcl-B inhibitors by biochemical FP with TR3 (AID 1243); format: functional
Chain of Bcl-2-like protein 10 (Q9HD36 whole entry): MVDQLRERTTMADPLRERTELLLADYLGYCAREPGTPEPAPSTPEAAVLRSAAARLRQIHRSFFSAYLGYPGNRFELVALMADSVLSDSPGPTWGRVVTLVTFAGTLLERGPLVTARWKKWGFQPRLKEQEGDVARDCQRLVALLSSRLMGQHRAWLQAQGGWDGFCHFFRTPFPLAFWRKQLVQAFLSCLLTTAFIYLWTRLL

NADPH oxidase 1 = target: T3, NADPH oxidase 1 (Homo sapiens, UniProt Q9Y5S8); experiment: Luminescence-based cell-based dose response assay to identify inhibitors of NADPH oxidase 1 (NOX1).; format: functional
T3 sequence (Q9Y5S8 whole entry): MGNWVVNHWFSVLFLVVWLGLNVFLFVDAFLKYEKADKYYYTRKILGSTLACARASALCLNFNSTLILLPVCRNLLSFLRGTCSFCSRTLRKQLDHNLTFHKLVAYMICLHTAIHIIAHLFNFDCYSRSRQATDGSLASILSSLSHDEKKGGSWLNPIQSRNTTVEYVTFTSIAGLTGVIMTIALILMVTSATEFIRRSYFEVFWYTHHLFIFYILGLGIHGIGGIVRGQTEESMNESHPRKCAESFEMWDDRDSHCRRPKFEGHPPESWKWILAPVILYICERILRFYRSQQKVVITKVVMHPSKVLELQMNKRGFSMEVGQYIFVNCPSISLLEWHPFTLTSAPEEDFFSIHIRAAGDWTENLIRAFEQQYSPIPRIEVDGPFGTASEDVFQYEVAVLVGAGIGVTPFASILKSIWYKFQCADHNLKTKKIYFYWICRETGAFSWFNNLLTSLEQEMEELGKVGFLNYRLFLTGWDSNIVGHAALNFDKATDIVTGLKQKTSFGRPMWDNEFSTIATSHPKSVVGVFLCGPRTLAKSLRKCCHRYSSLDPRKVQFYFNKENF

[8] = target: T4, Mannose-6-phosphate isomerase (Homo sapiens, UniProt P34949); experiment: MPI enzyme activity inhibition – biochemical, fluorescence intensity, coupled assay, primary screen (AID 1209)
T4 sequence (P34949 whole entry): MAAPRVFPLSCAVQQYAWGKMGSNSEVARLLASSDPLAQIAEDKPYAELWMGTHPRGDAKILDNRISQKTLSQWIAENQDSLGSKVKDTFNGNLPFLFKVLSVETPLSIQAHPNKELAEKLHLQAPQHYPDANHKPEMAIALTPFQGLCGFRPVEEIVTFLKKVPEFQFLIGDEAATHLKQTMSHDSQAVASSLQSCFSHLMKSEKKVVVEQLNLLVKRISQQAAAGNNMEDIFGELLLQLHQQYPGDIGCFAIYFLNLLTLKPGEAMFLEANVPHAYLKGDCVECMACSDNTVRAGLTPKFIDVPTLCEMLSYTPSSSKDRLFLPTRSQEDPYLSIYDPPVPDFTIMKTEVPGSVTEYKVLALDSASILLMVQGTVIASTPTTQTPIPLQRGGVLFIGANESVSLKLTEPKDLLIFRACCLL

Estrogen receptor = target: T5, Estrogen receptor (Homo sapiens, UniProt P03372); experiment: ERα coactivator recruitment enhancers – biochemical, TR-FRET, ERα LBD, dose response (AID 737)
T5 sequence (P03372 whole entry): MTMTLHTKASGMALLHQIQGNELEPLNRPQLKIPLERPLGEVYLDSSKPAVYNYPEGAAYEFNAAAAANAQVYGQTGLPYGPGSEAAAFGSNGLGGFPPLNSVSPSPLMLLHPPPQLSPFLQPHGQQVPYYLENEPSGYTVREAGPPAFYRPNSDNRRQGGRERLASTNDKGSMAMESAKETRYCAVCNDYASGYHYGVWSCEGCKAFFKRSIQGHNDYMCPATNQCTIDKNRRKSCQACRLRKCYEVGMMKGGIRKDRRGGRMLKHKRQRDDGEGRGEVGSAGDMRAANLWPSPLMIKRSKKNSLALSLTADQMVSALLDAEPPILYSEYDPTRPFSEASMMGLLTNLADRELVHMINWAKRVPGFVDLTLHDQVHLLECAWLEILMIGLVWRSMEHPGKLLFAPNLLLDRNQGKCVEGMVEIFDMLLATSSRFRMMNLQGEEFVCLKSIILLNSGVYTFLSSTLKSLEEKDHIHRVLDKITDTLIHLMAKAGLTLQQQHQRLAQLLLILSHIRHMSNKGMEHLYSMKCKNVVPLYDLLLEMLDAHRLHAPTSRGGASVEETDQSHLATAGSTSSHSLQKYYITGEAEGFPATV

[9] = target: T6, Corticotropin-releasing factor receptor 2/Corticotropin-releasing factor-binding protein (Homo sapiens, UniProt P24387+Q13324); experiment: Dose Response confirmation of uHTS hits for small molecule antagonists of the CRF-binding protein and CRF-R2 receptor complex.; format: functional; details: read-out: IC50_Mean
T6 sequence (Q13324 whole entry): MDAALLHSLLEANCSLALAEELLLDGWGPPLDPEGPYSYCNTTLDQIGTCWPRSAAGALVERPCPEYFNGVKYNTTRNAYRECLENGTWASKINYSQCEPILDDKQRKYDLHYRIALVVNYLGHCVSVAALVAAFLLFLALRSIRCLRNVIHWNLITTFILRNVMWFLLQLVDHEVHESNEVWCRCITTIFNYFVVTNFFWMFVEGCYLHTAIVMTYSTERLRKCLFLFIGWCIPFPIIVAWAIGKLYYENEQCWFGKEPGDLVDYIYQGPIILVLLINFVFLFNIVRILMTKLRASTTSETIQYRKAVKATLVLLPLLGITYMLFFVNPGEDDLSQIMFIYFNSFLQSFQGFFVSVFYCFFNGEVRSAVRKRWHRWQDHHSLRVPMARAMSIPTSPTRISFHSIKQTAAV
T6 sequence (P24387 whole entry): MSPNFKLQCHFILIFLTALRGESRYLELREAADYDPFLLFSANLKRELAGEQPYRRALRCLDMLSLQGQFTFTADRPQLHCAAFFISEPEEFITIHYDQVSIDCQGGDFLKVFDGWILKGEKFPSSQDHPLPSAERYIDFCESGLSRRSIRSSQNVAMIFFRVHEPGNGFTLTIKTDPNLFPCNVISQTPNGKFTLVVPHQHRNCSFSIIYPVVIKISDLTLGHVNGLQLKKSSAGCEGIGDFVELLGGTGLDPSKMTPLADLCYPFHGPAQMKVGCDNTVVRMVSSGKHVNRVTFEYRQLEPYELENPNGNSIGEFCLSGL

[10] = target: T6, Corticotropin-releasing factor receptor 2/Corticotropin-releasing factor-binding protein; experiment: activators of CRF receptor 2 with binding protein – uHTS hits, confirmation (AID 602473); format: functional; details: read-out: EC50_Mean
[11] = target: Epstein-Barr nuclear antigen 1 (Epstein-Barr virus (strain B95-8) (HHV-4) (Human herpesvirus 4), UniProt P03211); experiment: inhibition of EBV nuclear antigen 1 DNA binding – biochemical, fluorescence polarization, 1536-well, dose response (AID 2381); design: species or system human gammaherpesvirus 4;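 also: fluorescence polarization of a Cy5 DNA probe bound by EBNA-1 protein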
Chain of Epstein-Barr nuclear antigen 1 (P03211 whole entry): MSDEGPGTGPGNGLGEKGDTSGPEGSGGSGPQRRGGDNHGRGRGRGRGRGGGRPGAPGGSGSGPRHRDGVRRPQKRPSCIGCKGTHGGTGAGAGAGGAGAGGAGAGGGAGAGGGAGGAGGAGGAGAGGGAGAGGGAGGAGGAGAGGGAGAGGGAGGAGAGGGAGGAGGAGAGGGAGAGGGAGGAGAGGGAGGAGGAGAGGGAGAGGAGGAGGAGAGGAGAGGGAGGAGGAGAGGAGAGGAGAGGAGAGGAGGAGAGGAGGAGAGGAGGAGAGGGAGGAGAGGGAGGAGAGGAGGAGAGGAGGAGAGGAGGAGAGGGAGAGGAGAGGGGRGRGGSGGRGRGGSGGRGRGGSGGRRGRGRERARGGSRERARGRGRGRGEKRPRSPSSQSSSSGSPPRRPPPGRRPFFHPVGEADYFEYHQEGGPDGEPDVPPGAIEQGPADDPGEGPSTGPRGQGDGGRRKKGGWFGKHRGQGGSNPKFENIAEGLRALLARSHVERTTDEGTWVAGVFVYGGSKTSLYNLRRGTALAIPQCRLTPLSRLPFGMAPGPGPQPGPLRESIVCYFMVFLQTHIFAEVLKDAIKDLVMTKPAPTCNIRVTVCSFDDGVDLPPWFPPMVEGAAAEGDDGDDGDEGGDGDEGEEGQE

[12] = target: T7, Calpain-2 catalytic subunit (Sus scrofa, UniProt P43367); experiment: m-calpain protease blockers, concentration series – biochemical, fluorogenic peptide substrate, dose response (AID 1420); format: functional
T7 sequence (P43367 whole entry): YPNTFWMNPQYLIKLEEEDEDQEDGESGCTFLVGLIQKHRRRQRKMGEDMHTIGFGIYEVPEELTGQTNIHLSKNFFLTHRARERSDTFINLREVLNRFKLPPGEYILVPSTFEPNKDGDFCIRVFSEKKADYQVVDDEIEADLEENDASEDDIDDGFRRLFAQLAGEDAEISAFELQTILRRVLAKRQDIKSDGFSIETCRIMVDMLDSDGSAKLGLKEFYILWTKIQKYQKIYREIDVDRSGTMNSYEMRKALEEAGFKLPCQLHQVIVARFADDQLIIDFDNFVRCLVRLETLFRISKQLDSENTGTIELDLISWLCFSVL

[13] = target: Lytic switch protein BZLF1 (Epstein-Barr virus (strain B95-8) (HHV-4) (Human herpesvirus 4), UniProt P03206); experiment: inhibition of BZLF1 ZTA DNA binding – biochemical, fluorescence polarization, Epstein-Barr virus, 1536-well, counter-screen for EBNA-1 inhibitor project, dose response (AID 2377); design: species or system human gammaherpesvirus 4;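 also: fluorescence polarization of Cy5-labelled ZRE DNA probe bound by purified Zta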
Chain of Lytic switch protein BZLF1 (P03206 whole entry): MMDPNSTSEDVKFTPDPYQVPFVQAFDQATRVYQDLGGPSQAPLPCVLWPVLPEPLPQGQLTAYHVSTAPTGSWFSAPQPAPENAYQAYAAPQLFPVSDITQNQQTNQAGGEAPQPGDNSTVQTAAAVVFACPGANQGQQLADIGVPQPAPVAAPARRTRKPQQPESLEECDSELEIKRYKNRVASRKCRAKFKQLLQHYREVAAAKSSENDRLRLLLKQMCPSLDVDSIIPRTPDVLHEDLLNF

Chain of Potassium voltage-gated channel subfamily KQT member 2 (O88943 whole entry W236L): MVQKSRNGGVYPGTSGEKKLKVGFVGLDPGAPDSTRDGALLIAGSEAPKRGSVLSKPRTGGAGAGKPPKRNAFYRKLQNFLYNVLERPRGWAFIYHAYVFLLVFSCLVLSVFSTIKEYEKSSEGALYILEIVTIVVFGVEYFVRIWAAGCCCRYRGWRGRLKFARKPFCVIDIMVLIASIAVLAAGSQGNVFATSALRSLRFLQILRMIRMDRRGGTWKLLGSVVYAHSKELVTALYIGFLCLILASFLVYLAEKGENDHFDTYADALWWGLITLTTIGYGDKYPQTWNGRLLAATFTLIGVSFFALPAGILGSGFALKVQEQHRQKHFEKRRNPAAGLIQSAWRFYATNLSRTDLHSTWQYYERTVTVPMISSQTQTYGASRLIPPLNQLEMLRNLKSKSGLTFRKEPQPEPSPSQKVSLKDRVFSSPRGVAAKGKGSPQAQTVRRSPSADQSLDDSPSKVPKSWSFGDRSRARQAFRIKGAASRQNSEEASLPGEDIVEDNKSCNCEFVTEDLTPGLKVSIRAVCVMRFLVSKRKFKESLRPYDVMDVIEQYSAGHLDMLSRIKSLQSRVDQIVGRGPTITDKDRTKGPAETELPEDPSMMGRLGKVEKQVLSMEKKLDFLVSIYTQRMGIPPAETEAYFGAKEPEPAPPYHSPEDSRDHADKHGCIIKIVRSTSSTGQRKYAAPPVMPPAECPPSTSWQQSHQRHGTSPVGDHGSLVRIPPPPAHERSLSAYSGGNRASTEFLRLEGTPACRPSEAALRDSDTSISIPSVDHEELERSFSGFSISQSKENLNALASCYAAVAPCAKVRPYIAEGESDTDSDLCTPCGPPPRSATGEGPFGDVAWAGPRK

CSc1nnc(NC(=O)c2nc(S(=O)(=O)Cc3ccccc3F)ncc2Cl)s1
EC50 [1]: 4.19 µM (active)
AC50 [2]: 2.14 µM (active)
CC50 [3]: 35.4 µM (active)
AC50 [4]: 5 µM (active)
CC50 (Vero): 27.8 µM (active)
EC50 (Protein RecA): 3.5 µM (active)
IC50 (Genome polyprotein): 52.3 µM (active)
AC50 [5]: 1.55 µM (active)
AC50 [6]: 13 µM (active)
IC50 [7]: 3.98 µM (active)

Clc1ccc(C2C=C(c3ccccc3)Nc3ncnn32)cc1 (centres undefined)
EC50 (Bcl-2-like protein 10): 14.2 µM (active)

CCOc1ccc(NC(=O)Nc2ccc(N(C)C(C)=O)cc2)cc1
IC50 (NADPH oxidase 1): > 20 µM (not active)

CCOC(=O)NC1(Nc2cccc(Cl)c2)Oc2ccccc2O1
IC50 [8]: > 50 µM (not active)

COC(=O)c1ccc(CSc2nc3c(cnn3-c3ccc(F)cc3)c(=O)[nH]2)o1
EC50 (Estrogen receptor): 12.9 µM (not active)
IC50 [9]: > 47.1 µM (inactive)
EC50 [10]: > 53 µM (inactive)

CCOC(=O)c1ccc(NC(=O)C2CC(=O)Nc3nc4ccccc4n32)cc1 (centres undefined)
IC50 [11]: > 5.47 µM (active)
IC50 [12]: > 50 µM (not active)
IC50 [13]: > 111 µM (not active)
